Paper PMC7801616, “Surface hydrophobics mediate functional dimerization of CYP121A1 of Mycobacterium tuberculosis” (Scientific Reports, 2021)
pKd: −log10 of the molar value. Entries after “also recorded” stand apart in the source; their conditions may differ.

How the values were obtained:
[1] = system: I166A_I180A CYP121A1 heme thiolate-CO complex
WT CYP121A1 dimer = system: WT CYP121A1 dimer; parameters: species or system Mycobacterium tuberculosis
WT CYP121A1 (dimeric) = WT CYP121A1 (dimeric) (Mycobacterium tuberculosis, UniProt P9WPP7); format: binding; details: pH 7.4
[2] = target: I166A_I180A CYP121A1 (monomeric) (Mycobacterium tuberculosis, UniProt P9WPP7, I166A/I180A); format: binding
I166A_I180A CYP121A1 = format: binding, Mycobacterium tuberculosis

O=C1N[C@@H](Cc2ccc(O)cc2)C(=O)N[C@H]1Cc1ccc(O)cc1 [cYY, cyclo-L-Tyr-L-Tyr]
increase of estimated half-life of the heme thiolate-CO complex by presence of substrate [1]: 50 fold

Clc1ccc(COC(Cn2ccnc2)c2ccc(Cl)cc2Cl)cc1 (stereo not drawn) [econazole]
effect of ligand saturation on dimer migration on gel filtration column (WT CYP121A1 dimer): did not cause CYP121A1 to migrate on the column as a monomer

c1c[nH]cn1 [imidazole]
pKd (WT CYP121A1 (dimeric)): 1.34 | decrease of Kd from dimeric to monomeric CYP121A1 [2]: 20 fold | pKd ([2]; pH 7.4): 2.56 | effect of ligand on thermal stability (I166A_I180A CYP121A1): destabilizing

CC(=O)N1CCN(c2ccc(OCC3COC(Cn4ccnc4)(c4ccc(Cl)cc4Cl)O3)cc2)CC1 (stereo not drawn) [ketoconazole]
stabilization of the CO-bound 450 nm species [1]: minimal stabilization of the 450 nm species | effect of ligand on thermal stability (I166A_I180A CYP121A1): modest increase in the stability; also recorded: destabilizing

Clc1ccc(COC(Cn2ccnc2)c2ccc(Cl)cc2Cl)c(Cl)c1 (stereo not drawn) [miconazole]
effect of ligand saturation on dimer migration on gel filtration column (WT CYP121A1 dimer): did not cause CYP121A1 to migrate on the column as a monomer
